test system: ABCA-1 gene; assay: compounds tested and found to elevate cellular expression of the ABCA-1 gene (Examples 1-6; test not named); type: cell-based
Protocol: Activity testing is conducted as described in those patents and patent applications referenced above, and in the Examples below, and by methods apparent to one skilled in the art.

SMILES | cellular expression of the ABCA-1 gene
N#Cc1c(NC(=O)c2ccc(Br)o2)sc2ccccc12 [(5-bromo(2-furyl)-N-(3-cyanobenzo[b]thiophen-2-yl)carboxamide] | elevate cellular expression of the ABCA-1 gene
CCCCNC(=O)N(Cc1ccco1)C(C)c1nc2cc(Cl)ccc2c(=O)n1-c1ccc(C)cc1 (stereo not drawn) [(butylamino)-N-{[7-chloro-3-(4-methylphenyl)-4-oxo(3-hydroquinazolin-2-yl)]ethyl}-N-(2-furylmethyl)carboxamide] | elevate cellular expression of the ABCA-1 gene
CCCCNC(=O)N(CCC(C)C)C(C)c1nc2cc(Cl)ccc2c(=O)n1-c1ccc(C)cc1 (stereo not drawn) [(butylamino)-N-{[7-chloro-3-(4-methylphenyl)-4-oxo(3-hydroquinazolin-2-yl)]ethyl}-N-(3-methylbutyl)carboxamide] | elevate cellular expression of the ABCA-1 gene
O=C(Nc1ccc2c(c1)CCC2)NC1CCCCC1 [(cyclohexylamino)-N-indan-5-ylcarboxamide] | elevate cellular expression of the ABCA-1 gene
CN(C)c1ccc(CN(C(=O)Nc2ccccc2F)c2ccc3c(c2)CCC3)cc1 [({[4-(dimethylamino)phenyl]methyl}indan-5-ylamino)-N-(2-fluorophenyl)carboxamide] | elevate cellular expression of the ABCA-1 gene
CCc1c(C(=O)NC(C)C(C)C)cnn1-c1nc(-c2ccc(C)cc2)cs1 (stereo not drawn) [N-(1,2-dimethylpropyl){5-ethyl-1-[4-(4-methylphenyl)(1,3-thiazol-2-yl)]pyrazol-4-yl}carboxamide] | elevate cellular expression of the ABCA-1 gene
O=C(Nc1nccs1)c1ccc(OC(F)(F)F)cc1 [N-(1,3-thiazol-2-yl)[4-(trifluoromethoxy)phenyl]carboxamide] | elevate cellular expression of the ABCA-1 gene
O=C(NC1=NCCS1)c1ccc(C(F)(F)F)cc1 [N-(1,3-thiazolin-2-yl)[4-(trifluoromethyl)phenyl]carboxamide] | elevate cellular expression of the ABCA-1 gene
CCCCN(CC(=O)N1CCc2ccccc2C1)C(=O)Nc1cccc(Cl)c1Cl [N-(2,3-dichlorophenyl)[butyl(2-oxo-2-(2-1,2,3,4-tetrahydroisoquinolyl)ethyl)amino]carboxamide] | elevate cellular expression of the ABCA-1 gene
Cc1ccc(C)c(NC(=O)c2sc3ccccc3c2Cl)c1 [N-(2,5-dimethylphenyl)(3-chlorobenzo[b]thiophen-2-yl)carboxamide] | elevate cellular expression of the ABCA-1 gene
Cc1cccc(C)c1NC(=O)c1sc2ccccc2c1Cl [N-(2,6-dimethylphenyl)(3-chlorobenzo[b]thiophen-2-yl)carboxamide] | elevate cellular expression of the ABCA-1 gene
O=C(Nc1cccc(Cl)c1)Nc1ccccc1Cl [N-(2-chlorophenyl)[(3-chlorophenyl)amino]carboxamide] | elevate cellular expression of the ABCA-1 gene
O=C(Nc1cccc(Cl)c1)Nc1ccccc1F [N-(2-fluorophenyl)[(3-chlorophenyl)amino]carboxamide] | elevate cellular expression of the ABCA-1 gene
COc1cc2c(cc1NC(=O)C(C)(C)C)oc1ccccc12 [N-(2-methoxydibenzo[b,d]furan-3-yl)-2,2-dimethylpropanamide] | elevate cellular expression of the ABCA-1 gene
CC(C)CN(C(=O)Nc1cccc2ccccc12)C(C)c1nc2ccccc2c(=O)n1-c1ccc2ccccc2c1 (stereo not drawn) [N-(2-methylpropyl)(naphthylamino)-N-[(3-(2-naphthyl)-4-oxo(3-hydroquinazolin-2-yl))ethyl]carboxamide] | elevate cellular expression of the ABCA-1 gene
CC(C)CN(C(=O)Nc1cccc(C(F)(F)F)c1)C(C)c1nc2ccccc2c(=O)n1-c1ccc2ccccc2c1 (stereo not drawn) [N-(2-methylpropyl)-N-[(3-(2-naphthyl)-4-oxo(3-hydroquinazolin-2-yl))ethyl]{[3-(trifluoromethyl)phenyl]amino}carboxamide] | elevate cellular expression of the ABCA-1 gene
CSc1ccc(NC(=O)N(CC(C)C)C(C)c2nc3ccccc3c(=O)n2-c2ccc3ccccc3c2)cc1 (stereo not drawn) [N-(2-methylpropyl)[(4-methylthiophenyl)amino]-N-[(3-(2-naphthyl)-4-oxo(3-hydroquinazolin-2-yl))ethyl]carboxamide] | elevate cellular expression of the ABCA-1 gene
O=C(Nc1ccc2c(c1)OCCO2)c1ccc([N+](=O)[O-])cc1Cl [N-(2H,3H-benzo[e]1,4-dioxan-6-yl)(2-chloro-4-nitrophenyl)carboxamide] | elevate cellular expression of the ABCA-1 gene
O=C(COCc1ccccc1)Nc1ccc2c(c1)OCCO2 [N-(2H,3H-benzo[e]1,4-dioxin-6-yl)-2-(phenylmethoxy)acetamide] | elevate cellular expression of the ABCA-1 gene
O=C(CCC1CCCC1)Nc1ccc2c(c1)OCCO2 [N-(2H,3H-benzo[e]1,4-dioxin-6-yl)-3-cyclopentylpropanamide] | elevate cellular expression of the ABCA-1 gene
CC(C)(C)c1ccc(C(=O)Nc2ccc3c(c2)OCCO3)cc1 [N-(2H,3H-benzo[e]1,4-dioxin-6-yl)[4-(tert-butyl)phenyl]carboxamide] | elevate cellular expression of the ABCA-1 gene

SMILES | cellular expression of the ABCA-1 gene
O=C(Nc1ccc2c(c1)OCCO2)Nc1ccccc1Br [N-(2H,3H-benzo[e]1,4-dioxin-6-yl)[(2-bromophenyl)amino]carboxamide] | elevate cellular expression of the ABCA-1 gene
O=C(Nc1ccc2c(c1)OCCO2)Nc1ccc([N+](=O)[O-])cc1Cl [N-(2H,3H-benzo[e]1,4-dioxin-6-yl)[(2-chloro-4-nitrophenyl)amino]carboxamide] | elevate cellular expression of the ABCA-1 gene
O=C(Nc1ccc(Cl)c(Cl)c1)Nc1ccc2c(c1)OCCO2 [N-(2H,3H-benzo[e]1,4-dioxin-6-yl)[(3,4-dichlorophenyl)amino]carboxamide] | elevate cellular expression of the ABCA-1 gene
O=C(Nc1ccc2c(c1)OCOC2)c1sc2ccccc2c1Cl [N-(2H,4H-benzo[e]1,3-dioxan-7-yl)(3-chlorobenzo[b]thiophen-2-yl)carboxamide] | elevate cellular expression of the ABCA-1 gene
O=C(Nc1cccc(O)c1)Nc1ccc(Cl)c(Cl)c1 [N-(3,4-dichlorophenyl)[(3-hydroxyphenyl)amino]carboxamide] | elevate cellular expression of the ABCA-1 gene
Cc1ccc(NC(=O)Nc2ccc(Cl)c(Cl)c2)cc1 [N-(3,4-dichlorophenyl)[(4-methylphenyl)amino]carboxamide] | elevate cellular expression of the ABCA-1 gene
O=C(NCC1CCCCC1)Nc1ccc(Cl)c(Cl)c1 [N-(3,4-dichlorophenyl)[(cyclohexylmethyl)amino]carboxamide] | elevate cellular expression of the ABCA-1 gene
Cc1ccc(NC(=O)c2ccc3ccccc3c2)cc1C [N-(3,4-dimethylphenyl)-2-naphthylcarboxamide] | elevate cellular expression of the ABCA-1 gene
Cc1ccc(NC(=O)Nc2cccc(Cl)c2)cc1C [N-(3,4-dimethylphenyl)[(3-chlorophenyl)amino]carboxamide] | elevate cellular expression of the ABCA-1 gene
Cc1ccc(NC(=O)Nc2ccc(Cl)cc2)cc1C [N-(3,4-dimethylphenyl)[(4-chlorophenyl)amino]carboxamide] | elevate cellular expression of the ABCA-1 gene
O=C(Nc1cccc(Cl)c1)c1ccc2ccccc2c1 [N-(3-chlorophenyl)-2-naphthylcarboxamide] | elevate cellular expression of the ABCA-1 gene
Cc1cccc(NC(=O)c2cc3ccccc3oc2=O)c1 [N-(3-methylphenyl)(2-oxochromen-3-yl)carboxamide] | elevate cellular expression of the ABCA-1 gene
O=C(Nc1nc(-c2ccc3ccccc3c2)cs1)c1cccc(C(F)(F)F)c1 [N-(4-(2-naphthyl)(1,3-thiazol-2-yl))[3-(trifluoromethyl)phenyl]carboxamide] | elevate cellular expression of the ABCA-1 gene
O=C(Nc1nc(-c2ccc3ccccc3c2)cs1)c1ccc(OC(F)(F)F)cc1 [N-(4-(2-naphthyl)(1,3-thiazol-2-yl))[4-(trifluoromethoxy)phenyl]carboxamide] | elevate cellular expression of the ABCA-1 gene
CC(=O)c1ccc(NC(=O)c2ccc(F)cc2)cc1 [N-(4-acetylphenyl)(4-fluorophenyl)carboxamide] | elevate cellular expression of the ABCA-1 gene
CC(=O)c1ccc(NC(=O)Nc2cccc(Cl)c2)cc1 [N-(4-acetylphenyl)[(3-chlorophenyl)amino]carboxamide] | elevate cellular expression of the ABCA-1 gene
O=C(Nc1ccc(Br)cc1)c1ccc2ccccc2c1 [N-(4-bromophenyl)-2-naphthylcarboxamide] | elevate cellular expression of the ABCA-1 gene
N#Cc1cccc(C(=O)Nc2nc3c(Cl)cccc3s2)c1 [N-(4-chlorobenzothiazol-2-yl)(3-cyanophenyl)carboxamide] | elevate cellular expression of the ABCA-1 gene
O=C(Nc1nc2c(Cl)cccc2s1)c1cccc(F)c1 [N-(4-chlorobenzothiazol-2-yl)(3-fluorophenyl)carboxamide] | elevate cellular expression of the ABCA-1 gene
N#Cc1ccc(C(=O)Nc2nc3c(Cl)cccc3s2)cc1 [N-(4-chlorobenzothiazol-2-yl)(4-cyanophenyl)carboxamide] | elevate cellular expression of the ABCA-1 gene
O=C(Nc1nc2c(Cl)cccc2s1)c1ccco1 [N-(4-chlorobenzothiazol-2-yl)-2-furylcarboxamide] | elevate cellular expression of the ABCA-1 gene
